≈ marks a conversion by molar mass, not a printed value. Like-named read-outs stand apart in the source and are kept apart here.
Key:
E. coil = assay: Zone of inhibition, agar well; settings: E.coli; antibiotic amount (5-200 mcg)
MRSA 1 = assay: Zone of inhibition, agar well; settings: antibiotic amount (1-200 mcg)
MRSA 2 = assay: Zone of inhibition, agar well; settings: antibiotic amount (1-200 mcg)
S. aureus ATCC 6538 P = assay: Zone of inhibition, agar well; settings: antibiotic amount (1-200 mcg)
S.typhi = assay: Zone of inhibition, agar well; settings: antibiotic amount (5-200 mcg)
[1] = test system: Escherichia coli MDR clinical isolate (stool); assay: Antibiotic sensitivity, Kirby Bauer; settings: gram-negative isolate E. coli
[2] = test system: Pseudomonas aeruginosa MDR clinical isolate (sputum); assay: Antibiotic sensitivity, Kirby Bauer; settings: gram-negative isolate Pseudomonas
S. pyogenes = assay: MIC/MBC broth microdilution; assay type: cell-based, Streptococcus pyogenes
S. mutans = assay: MIC/MBC broth microdilution; assay type: cell-based, Streptococcus mutans
S gordonii = assay: MIC/MBC broth microdilution; assay type: cell-based, Streptococcus gordonii
S. pneumoniae = assay: MIC/MBC broth microdilution; assay type: cell-based
S. faecalis = assay: MIC/MBC broth microdilution; assay type: cell-based, Streptococcus faecalis
S. aureus = assay: MIC/MBC broth microdilution; assay type: cell-based, Staphylococcus aureus
P. aeruginosa = assay: MIC/MBC broth microdilution; assay type: cell-based, Pseudomonas aeruginosa
E. coli = assay: MIC/MBC broth microdilution; assay type: cell-based, Escherichia coli
E. aerogenes = assay: MIC/MBC broth microdilution; assay type: cell-based, Enterobacter aerogenes; settings: E. aerogenes
S. typhimurium = assay: MIC/MBC broth microdilution; assay type: cell-based; settings: S. typhimurium
S arizona = assay: MIC/MBC broth microdilution; assay type: cell-based, Salmonella arizona
S. boydii = assay: MIC/MBC broth microdilution; assay type: cell-based, Shigella boydii; settings: S. boydii
K. pneumoniae = assay: MIC/MBC broth microdilution; assay type: cell-based, Klebsiella pneumoniae
K. oxytoca = assay: MIC/MBC broth microdilution; assay type: cell-based; settings: K. oxytoca
Ps. Aeruginosa = assay: Zone of inhibition, agar well; settings: antibiotic amount (5-200 mcg)
B. subtilis = assay: Zone of inhibition, agar well; settings: antibiotic amount (1-200 mcg)
E. cloacae = assay: MIC/MBC broth microdilution; assay type: cell-based; settings: Enterobacter cloacae, read-out: MIC

SMILES: CC1(C)S[C@@H]2[C@H](NC(=O)[C@H](N)c3ccccc3)C(=O)N2[C@H]1C(=O)O [Ampicillin]
- zone of inhibition, antibiotics (E. coil): 23 mm
- zone of inhibition, antibiotics (MRSA 1): 15 mm
- zone of inhibition, antibiotics (MRSA 2): 18 mm
- zone of inhibition, antibiotics (S. aureus ATCC 6538 P): Clear
- zone of inhibition, antibiotics (S.typhi): 20 mm
- resistance of isolate [1]: resistance
- resistance of isolate [2]: resistance

SMILES: CCN1CCN(C(=O)N[C@@H](C(=O)N[C@@H]2C(=O)N3C(C(=O)O)=C(CSc4nnnn4C)CS[C@H]23)c2ccc(O)cc2)C(=O)C1=O [Cefaperazon]
- MBC (S. pyogenes): 1.25 ppm
- MIC (S. pyogenes): 0.313 ppm
- MBC (S. mutans): > 5 ppm
- MIC (S. mutans): 1.25 ppm
- MBC (S gordonii; S gordonii): 1.25/1.25 ppm
- MIC (S gordonii; S gordonii): 1.25/1.25 ppm
- MBC (S. pneumoniae): 0.313/0.313 ppm
- MIC (S. pneumoniae): 0.313/0.313 ppm
- MIC (S. faecalis): >5.0 ppm
- MBC (S. aureus): 5.0/5.0 ppm
- MIC (S. aureus): 5.0/5.0 ppm
- MBC (P. aeruginosa): 5.0 ppm
- MIC (P. aeruginosa): 2.5 ppm
- MBC (E. coli): > 5.0 ppm
- MIC (E. coli): 0.625 ppm
- MBC (E. aerogenes): > 5.0 ppm
- MIC (E. aerogenes): 2.92 ppm
- MBC (S. typhimurium): 2.5 ppm
- MIC (S. typhimurium): 1.25 ppm
- MBC (S arizona): > 5.0 ppm
- MIC (S arizona): 0.833 ppm
- MBC (S. boydii): 0.625/0.625 ppm
- MIC (S. boydii): 0.625/0.625 ppm
- MIC (K. pneumoniae): >5.0 ppm
- MBC (K. oxytoca): > 5.0 ppm
- MIC (K. oxytoca): 1.25 ppm

SMILES: CO/N=C(\C(=O)N[C@@H]1C(=O)N2C(C(=O)O)=C(COC(C)=O)CS[C@H]12)c1csc(N)n1 [Cefotaxime]
- zone of inhibition, antibiotics (E. coil): 21 mm
- zone of inhibition, antibiotics (MRSA 2): -Clear
- zone of inhibition, antibiotics (S. aureus ATCC 6538 P): 26 mm
- zone of inhibition, antibiotics (S.typhi): 22 mm

SMILES: CO/N=C(\C(=O)N[C@@H]1C(=O)N2C(C(=O)O)=CCS[C@H]12)c1csc(N)n1 [Ceftizoxime]
- zone of inhibition, antibiotics (E. coil): 18 mm
- zone of inhibition, antibiotics (Ps. Aeruginosa): No inhibition
- zone of inhibition, antibiotics (S.typhi): 15 mm

SMILES: CC1=C(C(=O)O)N2C(=O)[C@@H](NC(=O)[C@H](N)c3ccccc3)[C@H]2SC1 [Cephalexin]
- zone of inhibition, antibiotics (B. subtilis): Clear
- zone of inhibition, antibiotics (MRSA 1): 1.0 mm
- zone of inhibition, antibiotics (MRSA 2): 0.8 mm
- zone of inhibition, antibiotics (S. aureus ATCC 6538 P): Clear

SMILES: O=C(N[C@H](CO)[C@H](O)c1ccc([N+](=O)[O-])cc1)C(Cl)Cl [Chloramphenicol]
- zone of inhibition, antibiotics (E. coil): 22 mm
- zone of inhibition, antibiotics (Ps. Aeruginosa): No inhibition
- zone of inhibition, antibiotics (S.typhi): 23 mm

SMILES: O=C(O)c1cn(C2CC2)c2cc(N3CCNCC3)c(F)cc2c1=O [Ciprofloxacin]
- zone of inhibition, antibiotics (E. coil): 29 mm
- zone of inhibition, antibiotics (MRSA 1): 14 mm
- zone of inhibition, antibiotics (MRSA 2): 14 mm
- zone of inhibition, antibiotics (S. aureus ATCC 6538 P): 28 mm
- zone of inhibition, antibiotics (S.typhi): 25 mm

SMILES: Cc1onc(-c2ccccc2Cl)c1C(=O)N[C@@H]1C(=O)N2[C@@H]1SC(C)(C)[C@@H]2C(=O)O [Cloxacillin]
- zone of inhibition, antibiotics (MRSA 1): Clear
- zone of inhibition, antibiotics (MRSA 2): 13 mm
- zone of inhibition, antibiotics (S. aureus ATCC 6538 P): Clear

SMILES: CC[C@H]1OC(=O)[C@H](C)[C@@H](O[C@H]2C[C@@](C)(OC)[C@@H](O)[C@H](C)O2)[C@H](C)[C@@H](O[C@@H]2O[C@H](C)C[C@H](N(C)C)[C@H]2O)[C@](C)(O)C[C@@H](C)C(=O)[C@H](C)[C@@H](O)[C@]1(C)O [Erythromycin]
- MBC (S. pyogenes; Streptococcus pyogenes, read-out: MBC): 0.019 µg/mL (≈ 0.0259 µM)
- MIC (S. pyogenes; Streptococcus pyogenes, read-out: MIC): 0.003 µg/mL (≈ 0.00409 µM)
- MBC (S. mutans; Streptococcus mutans, read-out: MBC): 0.019 µg/mL (≈ 0.0259 µM)
- MIC (S. mutans; Streptococcus mutans, read-out: MIC): 0.009 µg/mL (≈ 0.0123 µM)
- MBC (S gordonii; Streptococcus gordonii, read-out: MBC): 0.019 µg/mL (≈ 0.0259 µM)
- MIC (S gordonii; Streptococcus gordonii, read-out: MIC): 0.005 µg/mL (≈ 0.00681 µM)
- MBC (S. pneumoniae; Streptococcus pneumoniae, read-out: MBC): 0.004 µg/mL (≈ 0.00545 µM)
- MIC (S. pneumoniae; Streptococcus pneumoniae, read-out: MIC): 0.002 µg/mL (≈ 0.00273 µM)
- MBC (S. faecalis; Enterococcus faecalis, read-out: MBC): 1.25 µg/mL (≈ 1.7 µM)
- MIC (S. faecalis; Enterococcus faecalis, read-out: MIC): 0.009 µg/mL (≈ 0.0123 µM)
- MBC (S. aureus; Staphylococcus aureus, read-out: MBC): > 5 µg/mL
- MIC (S. aureus; Staphylococcus aureus, read-out: MIC): 0.039 µg/mL (≈ 0.0531 µM)
- MBC (P. aeruginosa; Pseudomonas aeruginosa, read-out: MBC): > 5 µg/mL
- MIC (P. aeruginosa; Pseudomonas aeruginosa, read-out: MIC): 2.5 µg/mL (≈ 3.41 µM)
- MBC (E. coli; Escherichia coli, read-out: MBC): > 5 µg/mL
- MIC (E. coli; Escherichia coli, read-out: MIC): 5 µg/mL (≈ 6.81 µM)
- MIC (E. aerogenes; Klebsiella aerogenes, read-out: MIC): > 5 µg/mL
- MIC (E. cloacae): > 5 µg/mL
- MBC (S. typhimurium; Salmonella enterica, read-out: MBC): > 5 µg/mL
- MIC (S. typhimurium; Salmonella enterica, read-out: MIC): 5 µg/mL (≈ 6.81 µM)
- MBC (S arizona; Salmonella, read-out: MBC): > 5 µg/mL
- MIC (S arizona; Salmonella, read-out: MIC): 4.17 µg/mL (≈ 5.68 µM)
- MBC (S. boydii; Shigella boydii, read-out: MBC): > 5 µg/mL
- MIC (S. boydii; Shigella boydii, read-out: MIC): 5 µg/mL (≈ 6.81 µM)
- MIC (K. pneumoniae; Klebsiella pneumoniae, read-out: MIC): > 5 µg/mL
- MIC (K. oxytoca; Klebsiella oxytoca, read-out: MIC): > 5 µg/mL

Source: patent US20110262556A1, “SILVER/WATER, SILVER GELS AND SILVER-BASED COMPOSITIONS; AND METHODS FOR MAKING AND USING THE SAME” (AMERICAN SILVER, LLC, priority 2005, published 2011)
